Assay results reported in PMC7018657, “Molecular Determinants of Substrate Selectivity of a Pneumococcal Rgg-Regulated Peptidase-Containing ABC Transporter” (mBio, 2020).
Where no end group is shown, it is not given here.

Tests used:
[1] = test system: Sp9-BS68 rtgS1 promoter (PrtgS1-luc; RtgR-dependent); experiment: RtgS dose-response assay, PrtgS1-luc reporter, Sp9-BS68 ΔrtgS1; format: cell-based, Streptococcus pneumoniae Sp9-BS68; details: for induction of rtgS1 promoter: Sp9-BS68 PrtgS1-luc, CDM+ and THY; for Maximal response / EC50: Sp9-BS68 ΔrtgS1, mean ± SE from Hill fit, 3 independent experiments, max PrtgS1 activity within 60 min; for EC50: synthetic peptide added at OD620 0.02, luminescence, 37°C
Method: (§1) FIG 2 The Rgg/SHP-like RtgR/RtgS system regulates rtg. (A) rtgR and rtgS1 are required for rtg activation in Sp9-BS68. Sp9-BS68 PrtgS1-luc reporters were grown in CDM+ or THY and monitored for rtg activation (dark, left y axis) and cell density (light, right y axis). Plots show medians (lines) and 25% to 75% quantiles (shading) from 12 wells pooled from 3 independent experiments. (B) Translated rtgS gene products from Sp9-BS68 and D39. The type-defining residues are highlighted in red. (C) rtgS1 but not rtgS2 is required for rtg activation in D39. D39 PrtgS1-luc reporters were grown in CDM+ and monitored for rtg activation (dark, left y axis) and cell density (light, right y axis). Plots show medians (lines) and 25% to 75% quantiles (shading) from 30 wells pooled from 3 independent experiments. C-terminal fragments of RtgSA induce rtg in an RtgR-dependent manner. Sp9-BS68 PrtgS1-luc reporters were grown in CDM+ and THY (D) or CDM+ only (E) to an OD620 of 0.02 and treated with synthetic RtgSA fragments. Response was defined as the maximum observed PrtgS1 activity within 60 min of treatment. Data in panel D were fitted to the four-parameter Hill model (curves). Plotted data points represent means ± SEs from 3 independent experiments. […] A D39 ΔrtgS1 ΔrtgS2 PrtgS1-luc reporter was grown in CDM+ to an OD620 of 0.02 and treated with synthetic RtgS fragments. Response was defined as the maximum observed PrtgS1 activity within 60 min of treatment. Data were fitted to the four-parameter Hill model (curves). Plotted data points represent means ± SEs from 3 independent experiments. […] A D39 ΔrtgS1 ΔrtgS2 PrtgS1-luc reporter was grown in CDM+ to an OD620 of 0.02 and treated simultaneously with 2 nM RtgSA-C10 and various concentrations of RtgSB-C10. Response was defined as the maximum observed PrtgS1 activity within 120 min of treatment. Plotted data points represent means ± SEs from 3 independent experiments. **, P < 0.01; ***, P < 0.001 versus 0 nM RtgSB-C10 by ANOVA with Dunnett’s correction for multiple comparisons.
(§2) All strains were derived from Sp9-BS68 ([36]), D39, or the R6 strain P654 (referred to as PSD100 in reference) (see Table S1 and methods in Text S1 in the supplemental material for details). […] Pneumococcus was grown in either filter-sterilized THY (Todd Hewitt broth plus 0.5% yeast extract) or CDM+ (see methods in Text S1) ([38]) at 37°C. All media contained 5 μg/ml catalase. All CDM+ was supplemented with 0.5% (vol/vol) THY. Except where noted otherwise, pneumococcal cultures used for experiments were inoculated to an OD620 of 0.0015 from starter cultures grown in THY (pH 7.4) to an OD620 of 0.275 and frozen at −80°C in 13% glycerol. Starter cultures were pelleted at 6,000 × g for 5 min at room temperature and resuspended in the appropriate growth medium for the experiment before being used for inoculation. Antibiotics were used at the following concentrations: chloramphenicol, 2 μg/ml; gentamicin, 200 μg/ml; kanamycin, 500 μg/ml; spectinomycin, 200 μg/ml; streptomycin, 100 μg/ml.
Cells expressing PrtgS1-luc reporters were grown in THY or CDM+ containing 330 μM firefly luciferin. At an OD620 of 0.02, cultures were aliquoted into a white, clear-bottom 96-well plate (655098; Greiner Bio-One), 100 μl per well. Each well of the plate was prefilled with 100 μl sterile medium containing 0.5% (vol/vol) dimethyl sulfoxide (DMSO), 330 μM firefly luciferin, and appropriate concentrations of synthetic RtgS peptide (Genscript). The plate was then incubated in a Synergy HTX plate reader set to read absorbance at 620 nm and luminescence every 5 min. For D39 strains only, the plate was shaken before readings were taken. PrtgS1 activity was calculated, and the response was defined as the maximum observed PrtgS1 activity within 60 min (Sp9-BS68) or 120 min (D39) of treatment. When applicable, curves were fit to a Hill model using the nls() function in R 3.5.1.

[2] = target: T1, D39 PrtgS1-luc (rtg locus) (Streptococcus pneumoniae, UniProt A0ACD7PPC8); experiment: RtgS dose-response assay, PrtgS1-luc reporter, D39 ΔrtgS1 ΔrtgS2; format: cell-based; details: CDM+; for Maximal response: mean ± SE from Hill fit, 3 independent experiments, max PrtgS1 activity within 60 min / 120 min (methods)
T1 sequence (A0ACD7PPC8 1-287): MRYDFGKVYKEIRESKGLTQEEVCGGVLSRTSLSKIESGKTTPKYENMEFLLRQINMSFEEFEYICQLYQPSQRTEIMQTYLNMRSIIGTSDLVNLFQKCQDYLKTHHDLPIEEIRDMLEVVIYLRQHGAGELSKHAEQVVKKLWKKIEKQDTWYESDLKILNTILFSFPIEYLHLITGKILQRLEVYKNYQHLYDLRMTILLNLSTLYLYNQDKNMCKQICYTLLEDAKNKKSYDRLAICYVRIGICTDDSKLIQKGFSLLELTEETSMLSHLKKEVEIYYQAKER
Method: as §1, §2
(§3) Cells expressing PrtgS1-luc reporters were grown in THY or CDM+ containing 330 μM firefly luciferin. […] The plate was then incubated in a Synergy HTX plate reader set to read absorbance at 620 nm and luminescence every 5 min. For D39 strains only, the plate was shaken before readings were taken. PrtgS1 activity was calculated, and the response was defined as the maximum observed PrtgS1 activity within 60 min (Sp9-BS68) or 120 min (D39) of treatment. […]

[3] = test system: Sp9-BS68 PrtgS1-luc in ΔpptAB and ΔamiCD mutants; experiment: Response of ΔpptAB and ΔamiCD PrtgS1-luc reporters to exogenous RtgS; format: cell-based, Streptococcus pneumoniae Sp9-BS68; details: CDM+, RtgSA-C10 at OD620 0.02, max within 60 min, 3 independent experiments
Method: Supplementary file : FIG S1 Ami and PptAB are required for RtgR/S signaling. (A) Both Ami and PptAB are required for natural rtg autoinduction. Sp9-BS68 PrtgS1-luc reporters were grown in CDM+ and monitored for rtg activation (dark, left y axis) and cell density (light, right y axis). Plots show medians (lines) and 25% to 75% quantiles (shading) from 30 wells per strain pooled from 3 independent experiments. […] Sp9-BS68 PrtgS1-luc reporters were grown in CDM+ to an OD620 of 0.02 and treated with RtgSA-C10. Response was defined as the maximum observed PrtgS1 activity within 60 min of treatment. Plotted data points represent means ± SEs from 3 independent experiments. Download FIG S1, PDF file, 0.6 MB.
as §3, with “luciferin. At an OD620 of 0.02, cultures were aliquoted into a white, clear-bottom 96-well plate (655098; Greiner Bio-One), 100 μl per well.” for “luciferin.”

[4] = target: T1, D39 PrtgS1-luc (rtg locus); experiment: Competitive dose-response assay of RtgSB-C10 against RtgSA-C10, D39 ΔrtgS1 ΔrtgS2 PrtgS1-luc; format: cell-based; details: CDM+
Method: FIG 2 The Rgg/SHP-like RtgR/RtgS system regulates rtg. (A) rtgR and rtgS1 are required for rtg activation in Sp9-BS68. Sp9-BS68 PrtgS1-luc reporters were grown in CDM+ or THY and monitored for rtg activation (dark, left y axis) and cell density (light, right y axis). Plots show medians (lines) and 25% to 75% quantiles (shading) from 12 wells pooled from 3 independent experiments. (B) Translated rtgS gene products from Sp9-BS68 and D39. The type-defining residues are highlighted in red. (C) rtgS1 but not rtgS2 is required for rtg activation in D39. D39 PrtgS1-luc reporters were grown in CDM+ and monitored for rtg activation (dark, left y axis) and cell density (light, right y axis). Plots show medians (lines) and 25% to 75% quantiles (shading) from 30 wells pooled from 3 independent experiments. C-terminal fragments of RtgSA induce rtg in an RtgR-dependent manner. […]
as §3

| Sequence | induction of rtgS1 promoter [1] | Maximal response ([1]; CDM+) | EC50 ([1]; CDM+) [nM] | Maximal response ([1]; THY) | EC50 ([1]; THY) [nM] | rtg induction / type of agonism [2] | Maximal response [2] | rescue of rtg activation by exogenous RtgS [3] | EC50 value larger than that of RtgSA-C10 (ratio) ([2]; versus RtgSA-C10) [fold] | antagonism of RtgSA-C10 ([4]; high concentrations with 2 nM RtgSA-C10, 3 independent experiments) | concentration antagonizing RtgSA-C10 ([4]; simultaneous with 2 nM RtgSA-C10, max PrtgS1 activity within 120 min, 3 independent experiments) [nM] |
| --- | --- | --- | --- | --- | --- | --- | --- | --- | --- | --- | --- |
| AIIFPWGWPI [RtgSA-C10] | induced expression from the Sp9-BS68 rtgS1 promoter in both CDM+ and THY | 205.7 ± 9.1 10^3 RLU·min^−1·OD620^−1 | 1.63 ± 0.19 | 232.4 ± 14.3 10^3 RLU·min^−1·OD620^−1 | 47.4 ± 6.9 | induces rtg similarly to Sp9-BS68 | 75.1 ± 8.1 10^3 RLU·min^−1·OD620^−1 | rescues rtg activation defect in the ΔpptAB mutant but not the ΔamiCD mutant | – | – | – |
| AIIFPWGWSI [RtgSB-C10] | – | – | – | – | – | partial agonist | 21.2 ± 1.5 10^3 RLU·min^−1·OD620^−1 | – | 55 | antagonize RtgSA-C10 | ≥ 256 |
| IFPWGWPI [RtgSA-C8] | induced expression from the Sp9-BS68 rtgS1 promoter in both CDM+ and THY | 212.2 ± 9.4 10^3 RLU·min^−1·OD620^−1 | 2.53 ± 0.25 | 229.7 ± 8.6 10^3 RLU·min^−1·OD620^−1 | 184 ± 15 | – | – | – | – | – | – |
| SLAIIFPWGWPI [RtgSA-C12] | induced expression from the Sp9-BS68 rtgS1 promoter in both CDM+ and THY | 213.9 ± 8.0 10^3 RLU·min^−1·OD620^−1 | 3.51 ± 0.28 | 210.1 ± 13.1 10^3 RLU·min^−1·OD620^−1 | 315 ± 42 | – | – | – | – | – | – |
